{"source": "ChEMBL document CHEMBL4342442", "about": "“Usnic Acid Enaminone-Coupled 1,2,3-Triazoles as Antibacterial and Antitubercular Agents” (J Nat Prod, 2020)", "key": {"[1]": {"tested_on": "Mycobacterium tuberculosis", "test": "Antitubercular activity against Mycobacterium tuberculosis H37Rv assessed as reduction in microbial growth after 7 days by alamar blue assay", "format": "functional", "details": "168 h"}, "Pseudomonas aeruginosa [2]": {"tested_on": "Pseudomonas aeruginosa", "test": "Antibacterial activity against Pseudomonas aeruginosa MTCC 741 assessed as diameter of zone of inhibition at 200 ug/ml after 24 hrs by agar well diffusion method", "format": "functional", "details": "MTCC 741, 24 h, read-out: DIZ"}, "Bacillus subtilis [3]": {"tested_on": "Bacillus subtilis", "test": "Antibacterial activity against Bacillus subtilis MTCC 441 assessed as reduction in microbial growth after 24 hrs by CLSI based microdilution method", "format": "functional", "details": "MTCC 441, 24 h"}, "Staphylococcus aureus [4]": {"tested_on": "Staphylococcus aureus", "test": "Antibacterial activity against Staphylococcus aureus MTCC 96 assessed as diameter of zone of inhibition at 200 ug/ml after 24 hrs by agar well diffusion method", "format": "functional", "details": "MTCC 96, 24 h, read-out: DIZ"}, "Klebsiella pneumoniae [5]": {"tested_on": "Klebsiella pneumoniae", "test": "Antibacterial activity against Klebsiella pneumoniae MTCC 618 assessed as reduction in microbial growth after 24 hrs by CLSI based microdilution method", "format": "functional", "details": "MTCC 618, 24 h"}, "Staphylococcus aureus [6]": {"tested_on": "Staphylococcus aureus", "test": "Antibacterial activity against Staphylococcus aureus MTCC 96 assessed as reduction in microbial growth after 24 hrs by CLSI based microdilution method", "format": "functional", "details": "MTCC 96, 24 h"}, "Klebsiella pneumoniae [7]": {"tested_on": "Klebsiella pneumoniae", "test": "Antibacterial activity against Klebsiella pneumoniae MTCC 618 assessed as diameter of zone of inhibition at 200 ug/ml after 24 hrs by agar well diffusion method", "format": "functional", "details": "MTCC 618, 24 h, read-out: DIZ"}, "Pseudomonas aeruginosa [8]": {"tested_on": "Pseudomonas aeruginosa", "test": "Antibacterial activity against Pseudomonas aeruginosa MTCC 741 assessed as reduction in microbial growth after 24 hrs by CLSI based microdilution method", "format": "functional", "details": "MTCC 741, 24 h"}, "[9]": {"tested_on": "Staphylococcus epidermidis", "test": "Antibacterial activity against Staphylococcus epidermidis assessed as reduction in microbial growth after 24 hrs by CLSI based microdilution method", "format": "functional"}, "Escherichia coli [10]": {"tested_on": "Escherichia coli", "test": "Antibacterial activity against Escherichia coli MTCC 443 assessed as reduction in microbial growth after 24 hrs by CLSI based microdilution method", "format": "functional", "details": "MTCC 443, 24 h"}, "[11]": {"tested_on": "Staphylococcus epidermidis", "test": "Antibacterial activity against Staphylococcus epidermidis assessed as diameter of zone of inhibition at 200 ug/ml after 24 hrs by agar well diffusion method", "format": "functional", "details": "read-out: DIZ"}, "Bacillus subtilis [12]": {"tested_on": "Bacillus subtilis", "test": "Antibacterial activity against Bacillus subtilis MTCC 441 assessed as diameter of zone of inhibition at 200 ug/ml after 24 hrs by agar well diffusion method", "format": "functional", "details": "MTCC 441, 24 h, read-out: DIZ"}, "Escherichia coli [13]": {"tested_on": "Escherichia coli", "test": "Antibacterial activity against Escherichia coli MTCC 443 assessed as diameter of zone of inhibition at 200 ug/ml after 24 hrs by agar well diffusion method", "format": "functional", "details": "MTCC 443, 24 h, read-out: DIZ"}, "CHO-K1": {"tested_on": "CHO-K1", "test": "Cytotoxicity against CHOK1 cells assessed as reduction in cell viability after 24 hrs by MTT assay", "format": "cell-based", "details": "Cricetulus griseus, CHO-K1, 24 h"}, "[14]": {"tested_on": "Mycobacterium tuberculosis", "test": "Antitubercular activity against Mycobacterium tuberculosis H37Rv assessed as log reduction in bacterial population at 10 ug/ml under starvation condition after 7 days by MPN assay", "format": "functional"}}}
{"smiles": "CC(=O)c1c(O)c(C)c(O)c2c1OC1=CC(=O)/C(=C(/C)NCc3cn(CC(=O)c4ccc(OC(F)(F)F)cc4)nn3)C(=O)C12C", "note": "(stereo not given)", "values": [{"measurement": "MIC", "setting": "[1]", "value": 39.9, "unit": "µM"}]}
{"smiles": "CC(=O)c1c(O)c(C)c(O)c2c1OC1=CC(=O)/C(=C(/C)NCc3cn(CC(=O)c4ccc(Cl)s4)nn3)C(=O)C12C", "note": "(stereo not given)", "values": [{"measurement": "MIC", "setting": "[1]", "value": 42.9, "unit": "µM"}]}
{"smiles": "COc1ccc(C(=O)Cn2cc(CN/C(C)=C3\\C(=O)C=C4Oc5c(C(C)=O)c(O)c(C)c(O)c5C4(C)C3=O)nn2)cc1", "note": "(stereo not given)", "values": [{"measurement": "MIC", "setting": "[1]", "value": 43.7, "unit": "µM"}]}
{"smiles": "CN[C@@H]1[C@H](O[C@H]2[C@H](O[C@H]3[C@H](O)[C@@H](O)[C@H](N=C(N)N)[C@@H](O)[C@@H]3N=C(N)N)O[C@@H](C)[C@]2(O)C=O)O[C@@H](CO)[C@H](O)[C@H]1O", "note": "[STREPTOMYCIN]", "values": [{"measurement": "zone of inhibition at 200 µg/mL", "setting": "Pseudomonas aeruginosa [2]", "value": 28, "unit": "mm"}, {"measurement": "MIC", "setting": "Bacillus subtilis [3]", "value": 8.1, "unit": "µM"}, {"measurement": "zone of inhibition at 200 µg/mL", "setting": "Staphylococcus aureus [4]", "value": 23, "unit": "mm"}, {"measurement": "MIC", "setting": "Klebsiella pneumoniae [5]", "value": 8.1, "unit": "µM"}, {"measurement": "MIC", "setting": "Staphylococcus aureus [6]", "value": 4, "unit": "µM"}, {"measurement": "zone of inhibition at 200 µg/mL", "setting": "Klebsiella pneumoniae [7]", "value": 26, "unit": "mm"}, {"measurement": "MIC", "setting": "Pseudomonas aeruginosa [8]", "value": 8.1, "unit": "µM"}, {"measurement": "MIC", "setting": "[9]", "value": 4, "unit": "µM"}, {"measurement": "MIC", "setting": "Escherichia coli [10]", "value": 8.1, "unit": "µM"}, {"measurement": "zone of inhibition at 200 µg/mL", "setting": "[11]", "value": 25, "unit": "mm"}, {"measurement": "zone of inhibition at 200 µg/mL", "setting": "Bacillus subtilis [12]", "value": 24, "unit": "mm"}, {"measurement": "zone of inhibition at 200 µg/mL", "setting": "Escherichia coli [13]", "value": 23, "unit": "mm"}]}
{"smiles": "CO[C@@]12[C@H](COC(N)=O)C3=C(C(=O)C(C)=C(N)C3=O)N1C[C@@H]1N[C@@H]12", "note": "[MITOMYCIN]", "values": [{"measurement": "IC50", "setting": "CHO-K1", "value": 39.8, "unit": "µM"}]}
{"smiles": "CC(=O)c1c(O)c(C)c(O)c2c1OC1=CC(=O)/C(=C(/C)NCc3cn(CC(=O)c4cc5ccccc5s4)nn3)C(=O)C12C", "note": "(stereo not given)", "values": [{"measurement": "MIC", "setting": "[1]", "value": 41.8, "unit": "µM"}]}
{"smiles": "COc1cccc(C(=O)Cn2cc(CN/C(C)=C3\\C(=O)C=C4Oc5c(C(C)=O)c(O)c(C)c(O)c5C4(C)C3=O)nn2)c1", "note": "(stereo not given)", "values": [{"measurement": "MIC", "setting": "[1]", "value": 43.7, "unit": "µM"}]}
{"smiles": "CC(=O)C1=C(O)C=C2Oc3c(C(C)=O)c(O)c(C)c(O)c3C2(C)C1=O", "note": "(stereo not given)", "values": [{"measurement": "MIC", "setting": "[1]", "value": 35.6, "unit": "µM"}]}
{"smiles": "CC(=O)c1c(O)c(C)c(O)c2c1OC1=CC(=O)/C(=C(/C)NCc3cn(CC(=O)c4ccccc4)nn3)C(=O)C12C", "note": "(stereo not given)", "values": [{"measurement": "MIC", "setting": "[1]", "value": 46.1, "unit": "µM"}]}
{"smiles": "CC(=O)c1c(O)c(C)c(O)c2c1OC1=CC(=O)/C(=C(/C)NCc3cn(CC(=O)N4CCN(c5ccccc5F)CC4)nn3)C(=O)C12C", "note": "(stereo not given)", "values": [{"measurement": "MIC", "setting": "[1]", "value": 9.7, "unit": "µM"}]}
{"smiles": "CC(=O)c1c(O)c(C)c(O)c2c1OC1=CC(=O)/C(=C(/C)NCc3cn(CC(=O)c4ccc5c(c4)Cc4ccccc4-5)nn3)C(=O)C12C", "note": "(stereo not given)", "values": [{"measurement": "MIC", "setting": "[1]", "value": 9.9, "unit": "µM"}]}
{"smiles": "CC(=O)c1c(O)c(C)c(O)c2c1OC1=CC(=O)/C(=C(/C)NCc3cn(CC(=O)c4cccs4)nn3)C(=O)C12C", "note": "(stereo not given)", "values": [{"measurement": "MIC", "setting": "[1]", "value": 45.6, "unit": "µM"}]}
{"smiles": "COc1ccc2cc(C(=O)Cn3cc(CN/C(C)=C4\\C(=O)C=C5Oc6c(C(C)=O)c(O)c(C)c(O)c6C5(C)C4=O)nn3)ccc2c1", "note": "(stereo not given)", "values": [{"measurement": "MIC", "setting": "[1]", "value": 40.2, "unit": "µM"}]}
{"smiles": "CC[C@@H](CO)NCCN[C@@H](CC)CO", "note": "[ETHAMBUTOL]", "values": [{"measurement": "MIC", "setting": "[1]", "value": 7.6, "unit": "µM"}]}
{"smiles": "CC(=O)c1c(O)c(C)c(O)c2c1OC1=CC(=O)/C(=C(/C)NCc3cn(CC(=O)c4ccc(F)cc4)nn3)C(=O)C12C", "note": "(stereo not given)", "values": [{"measurement": "MIC", "setting": "[1]", "value": 11.2, "unit": "µM"}, {"measurement": "MIC", "setting": "Bacillus subtilis [3]", "value": 347, "unit": "µM"}, {"measurement": "MIC", "setting": "Klebsiella pneumoniae [5]", "value": "> 350", "unit": "µM"}, {"measurement": "MIC", "setting": "Staphylococcus aureus [6]", "value": "> 350", "unit": "µM"}, {"measurement": "MIC", "setting": "Pseudomonas aeruginosa [8]", "value": "> 350", "unit": "µM"}, {"measurement": "MIC", "setting": "[9]", "value": "> 350", "unit": "µM"}, {"measurement": "MIC", "setting": "Escherichia coli [10]", "value": "> 350", "unit": "µM"}]}
{"smiles": "CC(=O)c1c(O)c(C)c(O)c2c1OC1=CC(=O)/C(=C(/C)NCc3cn(CC(=O)c4ccc(Br)s4)nn3)C(=O)C12C", "note": "(stereo not given)", "values": [{"measurement": "MIC", "setting": "[1]", "value": 39.8, "unit": "µM"}]}
{"smiles": "COc1c(N2C[C@@H]3CCCN[C@@H]3C2)c(F)cc2c(=O)c(C(=O)O)cn(C3CC3)c12", "note": "[MOXIFLOXACIN]", "values": [{"measurement": "FC", "setting": "[14]", "value": 2}]}
{"smiles": "CC(=O)c1c(O)c(C)c(O)c2c1OC1=CC(=O)/C(=C(/C)NCc3cn(CC(=O)N4CCN(C/C=C/c5ccccc5)CC4)nn3)C(=O)C12C", "note": "(stereo not given)", "values": [{"measurement": "MIC", "setting": "[1]", "value": 37.5, "unit": "µM"}]}
